ChEMBL document CHEMBL1201862, “PubChem BioAssay data set” (2004)
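Following 48 hours of exposure in 96-well plates, responses at five concentrations were used to interpolate endpoints linearly. Here, GI50 denotes the concentration required for 50% inhibition of growth.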 The source made the active and inactive calls. Rule as the data show it: active = GI50 up to about 1.1 µM and inactive = higher.

Tests used:
Test in all cases: DTP human tumour cell line panel, 48 h
SW-620 = tested on: SW-620
SF-268 = tested on: SF-268
NCI-H522 = tested on: NCI-H522
Malme-3M = tested on: Malme-3M
A498 = tested on: A498
U-251 = tested on: U-251
786-0 = tested on: 786-0
K562 = tested on: K562
OVCAR-5 = tested on: OVCAR-5
CAKI-1 = tested on: CAKI-1
SK-MEL-2 = tested on: SK-MEL-2
COLO 205 = tested on: COLO 205
KM-20L2 = tested on: KM-20L2
LOX IMVI = tested on: LOX IMVI
NCI/ADR-RES = tested on: NCI/ADR-RES
PC-3 = tested on: PC-3
Hs-578T = tested on: Hs-578T
MCF7 = tested on: MCF7
T47D = tested on: T47D
DU-145 = tested on: DU-145

Row | SMILES | GI50 (SW-620) | GI50 (SF-268) | GI50 (NCI-H522) | GI50 (Malme-3M) | GI50 (A498) | GI50 (U-251) | GI50 (786-0) | GI50 (K562) | GI50 (OVCAR-5) | GI50 (CAKI-1) | GI50 (SK-MEL-2) | GI50 (COLO 205) | GI50 (KM-20L2) | GI50 (LOX IMVI) | GI50 (NCI/ADR-RES) | GI50 (PC-3) | GI50 (Hs-578T) | GI50 (MCF7) | GI50 (T47D) | GI50 (DU-145)
1 | CCOC(=O)c1cnc2c(ccc3ncccc32)c1NCCCN(CC)CC | 41.9 µM (inactive) | 90.6 µM (inactive) | > 100 µM (inactive) | > 100 µM (inactive) | > 100 µM (inactive) | 72.4 µM (inactive) | 37.9 µM (inactive) | 27.2 µM (inactive) | > 100 µM (inactive) | > 100 µM (inactive) | > 100 µM (inactive) | 70.3 µM (inactive) | 34.2 µM (inactive) | 17.5 µM (inactive) | – | – | – | – | – | –
2 | OCCOc1ccc(-c2cc(-c3ccccn3)nc(-c3ccccn3)c2)cc1 | 0.267 µM (active) | 0.107 µM (active) | 0.661 µM (active) | 0.309 µM (active) | 3.3 µM (inactive) | 0.148 µM (active) | 0.0736 µM (active) | 0.107 µM (active) | 0.192 µM (active) | 0.398 µM (active) | 0.115 µM (active) | 0.115 µM (active) | < 0.0383 µM (active) | 0.0916 µM (active) | 202 nM (active) | 296 nM (active) | 1.37 µM (inactive) | 277 nM (active) | 553 nM (active) | 106 nM (active)
3 | O=C(O)CCC(NC(=O)c1ccccc1)C(=O)O (stereo unspecified) | 42.3 µM (inactive) | > 100 µM (inactive) | > 100 µM (inactive) | > 100 µM (inactive) | > 100 µM (inactive) | > 100 µM (inactive) | > 100 µM (inactive) | > 100 µM (inactive) | > 100 µM (inactive) | > 100 µM (inactive) | > 100 µM (inactive) | 52.1 µM (inactive) | > 100 µM (inactive) | > 100 µM (inactive) | – | – | – | – | – | –
4 | COc1ccc(C23c4ccc(OC)cc4CC2(c2ccc([N+](=O)[O-])cc2)Cc2cc(OC)ccc23)cc1 (stereo unspecified) | > 100 µM (inactive) | > 22.3 µM (inactive) | > 59.8 µM (inactive) | > 38.2 µM (inactive) | > 29.7 µM (inactive) | > 50.1 µM (inactive) | > 100 µM (inactive) | > 37.6 µM (inactive) | > 25.9 µM (inactive) | > 27.2 µM (inactive) | > 74.1 µM (inactive) | > 36.2 µM (inactive) | > 15.7 µM (inactive) | > 21.3 µM (inactive) | – | – | – | – | – | –
5 | COC(=O)C1C2CC3C(OC(=O)C31)C2OC(=O)[C@](OC)(c1ccccc1)C(F)(F)F (stereo partly specified) | > 100 µM (inactive) | > 100 µM (inactive) | > 100 µM (inactive) | > 100 µM (inactive) | > 100 µM (inactive) | > 100 µM (inactive) | > 100 µM (inactive) | > 100 µM (inactive) | > 100 µM (inactive) | > 100 µM (inactive) | > 100 µM (inactive) | > 100 µM (inactive) | > 100 µM (inactive) | > 100 µM (inactive) | – | – | – | – | – | –
6 | COc1ccc(N2C(=O)C(N3C(=O)C=CC3=O)C2C=O)cc1 (stereo unspecified) | > 100 µM (inactive) | > 100 µM (inactive) | > 100 µM (inactive) | > 100 µM (inactive) | > 100 µM (inactive) | > 100 µM (inactive) | > 100 µM (inactive) | > 100 µM (inactive) | > 100 µM (inactive) | > 100 µM (inactive) | > 100 µM (inactive) | > 100 µM (inactive) | > 100 µM (inactive) | > 100 µM (inactive) | – | – | – | – | – | –
7 | CC(=O)O[C@H]1[C@H](O[C@H]2CC[C@]34C[C@]35CC[C@]3(C)[C@@H]([C@@]6(C)CC[C@@H](C(C)(C)O)O6)[C@@H](O)C[C@@]3(C)[C@@H]5C[C@H](O[C@@H]3O[C@H](CO)[C@@H](O)[C@H](O)[C@H]3O)[C@H]4C2(C)C)OC[C@@H](O)[C@@H]1O | 25.4 µM (inactive) | > 100 µM (inactive) | > 100 µM (inactive) | > 100 µM (inactive) | > 100 µM (inactive) | 55 µM (inactive) | 42.6 µM (inactive) | 45.3 µM (inactive) | 72.6 µM (inactive) | > 100 µM (inactive) | > 100 µM (inactive) | 46.8 µM (inactive) | 69.7 µM (inactive) | 44 µM (inactive) | – | – | – | – | – | –
8 | O=C(c1ccccc1)c1nc2ccc(Cl)cc2cc1C(Br)Br | 0.185 µM (active) | 0.384 µM (active) | 1.82 µM (inactive) | 1.6 µM (inactive) | 1.79 µM (inactive) | 0.192 µM (active) | 0.17 µM (active) | 0.244 µM (active) | 0.519 µM (active) | 0.552 µM (active) | 0.45 µM (active) | 0.344 µM (active) | 0.25 µM (active) | 1.47 µM (inactive) | 161 nM (active) | 225 nM (active) | 0.193 µM (active) | 314 nM (active) | 200 nM (active) | 1030 nM (active)
9 | COc1ccccc1/C=C1\CCC(CNc2ccc(Cl)cc2)C1=O (stereo unspecified) | 2.09 µM (inactive) | 4.86 µM (inactive) | 1.57 µM (inactive) | 14.5 µM (inactive) | 13.8 µM (inactive) | 9.75 µM (inactive) | 10.5 µM (inactive) | 0.215 µM (active) | 10.6 µM (inactive) | 2.42 µM (inactive) | 13.2 µM (inactive) | 2.39 µM (inactive) | 0.661 µM (active) | 0.254 µM (active) | – | – | – | – | – | –
10 | N#Cc1c([N+](=O)[O-])cc(C(F)(F)F)cc1[N+](=O)[O-] | 3.26 µM (inactive) | 13.1 µM (inactive) | 0.59 µM (active) | 8.2 µM (inactive) | 18.2 µM (inactive) | 18.8 µM (inactive) | 6.14 µM (inactive) | 2.05 µM (inactive) | 18.1 µM (inactive) | 4.57 µM (inactive) | 18.5 µM (inactive) | 4.88 µM (inactive) | 17.1 µM (inactive) | 2.64 µM (inactive) | – | – | – | – | – | –
11 | O=C1CCC2(c3ccccc3)Nc3ncccc3N12 (stereo unspecified) | > 100 µM (inactive) | > 100 µM (inactive) | > 100 µM (inactive) | > 100 µM (inactive) | > 100 µM (inactive) | > 100 µM (inactive) | > 100 µM (inactive) | > 100 µM (inactive) | > 100 µM (inactive) | > 100 µM (inactive) | > 100 µM (inactive) | > 100 µM (inactive) | > 100 µM (inactive) | > 100 µM (inactive) | – | – | – | – | – | –
